Key:
[1] = tested on: lung cancer cells AS2; assay: Corresponding cell analysis after Taxol (cell death, proliferation inhibition/cells kill); assay type: cell-based
Excerpt: The moving speed of the cell can be obtained by analyzing the moving distance perpendicular to the electrode at different time points. […]. […] The treatment response includes proliferation inhibition/cells kill which are the important indicators for determining whether the chemotherapy is effective on clinical. Therefore, the conclusion of the treatment response of cells to the treatment method can be obtained fast by using electrorotation, and the treatment effect of the clinical treatment can be estimated with high reliability, so that the analysis period indeed can be substantially shorten (24 hrs v.s. 48 hrs).

[2] = tested on: lung cancer cells AS2; assay: Traveling-wave dielectrophoresis moving speed of cells after Taxol; assay type: cell-based; conditions: 24 hours after treatment
Excerpt: The principle of the traveling-wave dielectrophoresis is similar with the electrorotation. The test cells can be pushed away by the electrodes when applying a negative electrophoresis force (nDEP) through two set of parallel electrode 13 and 14, so that the influence on the moving condition resulting from the friction between the test cells and chip surface can be reduced. The two set of parallel electrode 13 and 14 individually include several electrodes having a width ranged from 0.1 to 1000 microns, preferably 0.5 to 100 microns, for example 1 micron, 20 microns, 40 microns, 50 microns, or 60 microns; the width of the intervals ranged from 0.1 to 1000 microns, preferably 0.5 to 100 microns, for example 1 micron, 20 microns, 40 microns, 50 microns, or 60 microns. Moreover, in this uneven electric field, the electric signal has a periodic variation in value and direction (such as a sine wave), for example, 360/N of sine wave signal are subsequently applied to the parallel electrodes, wherein N is preferably equal to 4, so that the sine wave of the electrodes have intervals of 90 degrees from each other, but N is not limited thereto. The wave signal of each electrode continuously changes the phase thereof by time to provide the source of the moving force for traveling-wave electrophoresis. […]

CC(=O)O[C@H]1C(=O)[C@@]2(C)[C@H]([C@H](OC(=O)c3ccccc3)[C@]3(O)C[C@H](OC(=O)[C@H](O)[C@@H](NC(=O)c4ccccc4)c4ccccc4)C(C)=C1C3(C)C)[C@]1(OC(C)=O)CO[C@@H]1C[C@@H]2O [Taxol]
proliferation inhibition/cells kill ([1]; 24 hours): obvious
cell death ([1]; 48 hours): obvious
proliferation inhibition/cells kill ([1]; 48 hours): obvious
moving speed versus placebo (only DMSO) [2]: much slower
